In PMC6510822, “Identification of anticancer OATP2B1 substrates by an in vitro triple-fluorescence-based cytotoxicity screen” (Archives of Toxicology, 2019):
Read-outs that look alike come from different tables or passages of the source. Marks after values point to notes of the source that are not given here.

Legend:
[1] = target: T1, OATP2B1 (Homo sapiens, UniProt O94956); assay: Inhibition of OATP2B1-mediated Cascade Blue uptake (microplate-based uptake assay, A431-2B1 cells)
T1 sequence (O94956 1-709): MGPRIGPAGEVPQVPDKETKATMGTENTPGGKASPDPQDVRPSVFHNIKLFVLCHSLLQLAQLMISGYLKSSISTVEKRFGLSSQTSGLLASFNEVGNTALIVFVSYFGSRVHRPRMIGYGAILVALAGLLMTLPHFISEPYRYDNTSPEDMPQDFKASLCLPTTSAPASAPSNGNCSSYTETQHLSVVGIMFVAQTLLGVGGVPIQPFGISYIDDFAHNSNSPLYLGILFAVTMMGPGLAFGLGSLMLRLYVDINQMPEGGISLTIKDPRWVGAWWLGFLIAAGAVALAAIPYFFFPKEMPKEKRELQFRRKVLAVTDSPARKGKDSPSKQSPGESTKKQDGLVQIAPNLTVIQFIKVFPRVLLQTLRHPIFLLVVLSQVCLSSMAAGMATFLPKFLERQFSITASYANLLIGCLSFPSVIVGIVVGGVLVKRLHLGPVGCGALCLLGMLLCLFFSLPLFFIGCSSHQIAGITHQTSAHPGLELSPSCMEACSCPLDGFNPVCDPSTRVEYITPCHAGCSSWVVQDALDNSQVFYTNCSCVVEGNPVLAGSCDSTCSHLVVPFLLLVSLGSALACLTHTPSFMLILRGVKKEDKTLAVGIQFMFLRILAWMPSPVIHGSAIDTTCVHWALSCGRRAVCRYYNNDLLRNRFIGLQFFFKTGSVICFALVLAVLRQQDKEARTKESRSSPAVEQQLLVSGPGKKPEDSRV

[2] = test system: Mes-Sa/Dx5 cells; assay: Fluorescence-based cytotoxicity assay, Mes-Sa/Dx5 eGFP; details: for IC50: fluorescent protein based assay; for RR (Dx5): resistance ratio = IC50 Mes-Sa/Dx5 / IC50 parental Mes-Sa
[3] = test system: A431 cells; assay: Fluorescence-based cytotoxicity assay, parental A431 eGFP
[4] = test system: A431-2B1 cells (OATP2B1 expressing); assay: Fluorescence-based cytotoxicity assay, OATP2B1-expressing A431-2B1 mCh; details: for IC50: 9 concentration points, at least 3 replicates
[5] = test system: Mes-Sa/Dx5 cells
[6] = test system: Mes-Sa-B1 cells (Pgp overexpressing); assay: Fluorescence-based cytotoxicity assay, Mes-Sa-B1 mOr; details: for IC50: fluorescent protein based assay; for RR (Mes-Sa-B1): resistance ratio = IC50 Mes-Sa-B1 / IC50 parental Mes-Sa, triple co-culture screen
[7] = test system: OATP2B1; assay: in vitro; details: human
[8] = test system: A431-G2 cells (ABCG2 expressing); assay: Fluorescence-based cytotoxicity assay, ABCG2-expressing A431-G2 mOr; details: triple co-culture, result in words
[9] = test system: Mes-Sa-B1 cells; assay: PrestoBlue-based cytotoxicity assay, Mes-Sa-B1; type: cell-based, human; details: PrestoBlue viability assay
Experimental: (§1) All experiments were performed using a robotic pipetting workstation (Hamilton Robotics STAR Let). Cells were seeded at a final cell density of 1875 cells per well in 384-well plates in the triple co-culture (625 cells from each lines) and at 2500 cells per well in the A431 control and A431-2B1 co-culture (1250 cells from both) systems. Co-cultured cells were incubated for 24 h at 37 °C and 5% CO2 under humidified atmosphere prior to the addition of drugs. […] Data were exported to a custom-made program for determining growth inhibition curves for each cell line. In confirmatory screens, compounds were tested with the same method in a nine-point dose response format. For validation, compounds were confirmed in cytotoxicity assays using the PrestoBlue cell viability reagent (ThermoFisher), according to the manufacturer’s instructions.

[10] = test system: A431B1 cells; assay: PrestoBlue-based cytotoxicity assay, A431B1; type: cell-based, human; details: PrestoBlue viability assay
Experimental: as §1

[11] = test system: Mes-Sa/Dx5 cells; assay: PrestoBlue-based cytotoxicity assay, Mes-Sa/DX5; type: cell-based, human; details: PrestoBlue viability assay
Experimental: as §1

[12] = test system: Mes-Sa cells; assay: PrestoBlue-based cytotoxicity assay, Mes-Sa; type: cell-based, human; details: PrestoBlue viability assay
Experimental: as §1

[13] = test system: A431-B1 cells (ABCB1/P-glycoprotein expressing); assay: Fluorescence-based cytotoxicity assay, ABCB1-expressing A431-B1 mCh; details: for IC50: fluorescent protein based assay; for RR (A431B1): resistance ratio = IC50 A431B1 / IC50 parental A431, triple co-culture screen
[14] = test system: A431 cells; assay: PrestoBlue-based cytotoxicity assay, A431; type: cell-based, human; details: PrestoBlue viability assay
Experimental: as §1

[15] = test system: Mes-Sa cells; assay: Fluorescence-based cytotoxicity assay, parental Mes-Sa mCh; details: fluorescent protein based assay
[16] = test system: A431G2 cells; assay: PrestoBlue-based cytotoxicity assay, A431G2; type: cell-based, human; details: PrestoBlue viability assay
Experimental: as §1

[17] = test system: OATP2B1; assay: Fluorescence-based cytotoxicity assay, OATP2B1-expressing A431-2B1 mCh; details: human
[18] = test system: ABCG2; assay: Fluorescence-based cytotoxicity assay, ABCG2-expressing A431-G2 mOr; details: human
[19] = test system: ABCB1 (P-glycoprotein); assay: Fluorescence-based cytotoxicity assay, ABCB1-expressing A431-B1 mCh; details: human
[20] = Homo sapiens, A-431, read-out: IC50 (µM) A431 eGFP, co-culture
[21] = IC50 A431 eGFP / IC50 A4312B1 mCh
[22] = primary screen, co-culture, Fig. 4 inset
[23] = Homo sapiens, A-431, read-out: IC50 (µM) A431 eGFP, monoculture
[24] = A431-2B1 mCherry cells (OATP2B1-expressing), monoculture
[25] = IC50 A431 eGFP / IC50 A4312B1 mCh, co-culture

Compound	IC50 [1] [µM]	IC50 [3, 20] [µM]	SR, monoculture [4, 21]	SR (A431-2B1 vs parental A431), screening of DTP Oncology Set IV [4, 22]	IC50 [3, 23] [µM]	IC50 at […] [17] [µM]	IC50 at […] [17, 24] [µM]	SR, co-culture [4, 25]	RR (Dx5) ([2]; triple co-culture screen)	RR (A431B1) [13]	RR (Mes-Sa-B1) [6]	other results
Cc1c(N)nc([C@H](CC(N)=O)NC[C@H](N)C(N)=O)nc1C(=O)N[C@H](C(=O)N[C@H](C)[C@@H](O)[C@H](C)C(=O)N[C@H](C(=O)NCCc1nc(-c2nc(C(=O)NCCC[S+](C)C)cs2)cs1)[C@@H](C)O)[C@@H](OC1OC(CO)C(O)C(O)C1OC1OC(CO)C(O)C(OC(N)=O)C1O)c1cnc[nH]1 (stereo partly shown) [NSC-125066, Bleomycin]												IC50 ([1]; read-out: IC50, inhibition of OATP2B1-mediated Cascade Blue (CB) uptake, CB 10 µM, 30 min, average ± SD): 64.2 ± 6.1 µM; SR (Mes-Sa/DX5) ([2]; selectivity ratio = IC50 parental Mes-Sa / IC50 Mes-Sa/Dx5, triple co-culture screen): 57.8; IC50 ([3]; read-out: IC50 (µM) A431 eGFP, co-culture, co-culture with A431-2B1 mCh, 9 concentration points, at least 3 replicates): 7.47 µM; IC50 ([3]; read-out: IC50 (µM) A431 eGFP, monoculture, 9 concentration points, at least 3 replicates): 16.3 µM; IC50 ([4]; read-out: IC50 (µM) A4312B1 mCh, co-culture, co-culture with A431 eGFP): 0.83 µM; IC50 ([4]; read-out: IC50 (µM) A4312B1 mCh, monoculture): 1.5 µM
CO[C@@]12[C@H](COC(N)=O)C3=C(C(=O)C(C)=C(N)C3=O)N1C[C@@H]1N[C@@H]12 [NSC-26980, Mitomycin]												SR (Mes-Sa/DX5) [5]: 4.407; SR (Mes-Sa-B1) [6]: 0.56
S=P(N1CC1)(N1CC1)N1CC1 [NSC-6396, Thioplex]	574 ± 283	57.6										SR (Mes-Sa/DX5) [2]: 12.56; IC50 [7]: 18.7 µM; SR (A431-2B1 vs parental A431), screening of DTP Oncology Set IV [4]: 3.48; SR, co-culture [4]: 3.08^*
Oc1c(CN2CCCCC2)ccc2cccnc12 [NSC57969]												Effect of ABCG2 expression on toxicity (A431-G2 vs parental A431) [8]: did not sensitize; IC50 [9]: 1.48 µM; IC50 ([2]; read-out: IC50 Mes-Sa/DX5, monoculture, monoculture): 0.951 µM; IC50 ([2]; read-out: IC50 Mes-Sa/DX5, triple co-culture, triple co-culture): 0.177 µM; IC50 [10]: 0.974 µM; IC50 [11]: 0.815 µM; IC50 [12]: 4.89 µM; IC50 ([13]; read-out: IC50 A431B1, monoculture, monoculture): 0.774 µM; IC50 ([13]; read-out: IC50 A431B1, triple co-culture, triple co-culture): 2.78 µM; IC50 ([3]; read-out: IC50 A431, monoculture, fluorescent protein based assay, monoculture): 5.13 µM; IC50 ([3]; read-out: IC50 A431, triple co-culture, fluorescent protein based assay, triple co-culture): 7.09 µM; IC50 [14]: 4.93 µM; IC50 ([15]; read-out: IC50 Mes-Sa, monoculture, monoculture): 5.08 µM; IC50 ([15]; read-out: IC50 Mes-Sa, triple co-culture, triple co-culture): 3.21 µM; IC50 ([6]; read-out: IC50 Mes-Sa-B1, monoculture, monoculture): 2.81 µM; IC50 ([6]; read-out: IC50 Mes-Sa-B1, triple co-culture, triple co-culture): 1.8 µM; IC50 [16]: 5.76 µM
COc1cc([C@@H]2c3cc4c(cc3[C@@H](O[C@@H]3O[C@@H]5CO[C@@H](c6cccs6)O[C@H]5[C@H](O)[C@H]3O)[C@H]3COC(=O)[C@H]23)OCO4)cc(OC)c1O [NSC-122819, Teniposide]	4.59 ± 0.4	0.45	6.1^**	4.78	0.83	0.07	0.14	6.02^*	75.25	5.43	41.88	

More lines, main results first:

IC50 [1] [µM]	Compound	IC50 [3, 20] [µM]	SR, monoculture [4, 21]	SR (A431-2B1 vs parental A431), screening of DTP Oncology Set IV [4, 22]	IC50 [3, 23] [µM]	IC50 at […] [17] [µM]	IC50 at […] [17, 24] [µM]	SR, co-culture [4, 25]	RR (Dx5) ([2]; triple co-culture screen)	RR (A431B1) [13]	RR (Mes-Sa-B1) [6]	other results
11 ± 0.7	CC/C(=C(\c1ccccc1)c1ccc(OCCN(C)C)cc1)c1ccccc1 [NSC-180973, Tamoxifen]		0.9	3.49								
265 ± 31.4	CN(Cc1cnc2nc(N)nc(N)c2n1)c1ccc(C(=O)N[C@@H](CCC(=O)O)C(=O)O)cc1 [NSC-740, Methotrexate]	0.38	3.59^**	9.00	0.43	0.03	0.12	11.78^**				
1.88 ± 0.32	COc1cc([C@@H]2c3cc4c(cc3[C@@H](O[C@@H]3O[C@@H]5CO[C@@H](C)O[C@H]5[C@H](O)[C@H]3O)[C@H]3COC(=O)[C@H]23)OCO4)cc(OC)c1O [NSC-141540, Etoposide]	7.45	3.2^*	3.017	6.42	0.82	1.99	9.06^**	> 61.73	> 4.14	16.97	IC50 at […] [18]: 4.05 µM; IC50 at […] ([18]; A431-G2 mOrange cells (ABCG2-expressing), monoculture): 12 µM; IC50 ([10]; Homo sapiens): 5.49 µM; IC50 at […] [19]: 13.8 µM; IC50 at […] ([19]; A431-B1 mCherry cells (ABCB1-expressing), monoculture): 46.3 µM; IC50 ([3]; Homo sapiens, A-431, read-out: IC50 A431, monoculture): 6.1 µM; IC50 ([3]; Homo sapiens, A-431, read-out: IC50 A431, triple co-culture): 1.69 µM; IC50 ([14]; Homo sapiens, A-431): 1.19 µM; IC50 ([16]; Homo sapiens): 3.43 µM
11.3 ± 0.38	CC(=O)O[C@@]12CO[C@@H]1C[C@H](O)[C@@]1(C)C(=O)[C@H](O)C3=C(C)[C@@H](OC(=O)[C@H](O)[C@@H](NC(=O)OC(C)(C)C)c4ccccc4)C[C@@](O)([C@@H](OC(=O)c4ccccc4)[C@H]21)C3(C)C [NSC-628503, Docetaxel]	0.08	4.35^*	4.00	0.00097	0.002	0.00022		295.00	26.38	275.00	
124 ± 6.42	CCCCCOC(=O)Nc1nc(=O)n([C@@H]2O[C@H](C)[C@@H](O)[C@H]2O)cc1F [NSC-712807, Capecitabine]	205	3.04^**	3.41	391	44.5	129	4.62^**				
